From article PMC7998250, “Temperate Zone Plant Natural Products—A Novel Resource for Activity against Tropical Parasitic Diseases” (Pharmaceuticals, 2021)
Where two headings read alike, the source gives them in different places.

What was measured:
[1] = test system: T. brucei bloodstream form; test: Initial screen, T. brucei bloodstream form, Alamar Blue; assay type: cell-based, Trypanosoma brucei brucei; details: for initial hit against T. brucei / inhibition of growth at 2 µM: 2 μM; for initial hit against T. brucei: growth reduced by ≥50%; for activity at 2 µM / inhibition of growth at 2 µM: Trypanosoma brucei; for activity at 2 µM: initial screen; for inhibition of growth at 2 µM: x = initial hit, read-out: initial hit T.b
Protocol: (§1) 634 compounds from the PhytoQuest Phytopure temperate plant natural product library were screened for growth inhibitory activity against L. mexicana axenic amastigotes, T. brucei bloodstream form, intraerythrocytic asexual P. falciparum (at 2 μM) and T. evansi bloodstream form parasites (at 1 μM). […] Our initial hits were defined as reducing growth of the parasite by ≥50%.
(§2) L. mexicana strain MNYC/BZ/62/M379 and L. donovani strain LdBOB (a clonal line from strain MHOM/SD/62/1S-CL2) were maintained in vitro in the procyclic promastigote stage. Parasites were cultivated at 26 °C in Schneider’s medium (Gibco) pH 7.0 containing 10% FBS, 100 U/mL penicillin (Lonza) and 100 μg/mL streptomycin (Lonza) as previously described. Differentiation into axenic amastigotes was performed as described previously. Briefly, axenic amastigotes were cultivated at 32 °C in Schneider’s medium pH 5.5 containing 10% FBS, 100 U/mL penicillin (Lonza) and 100 μg/mL streptomycin (Lonza). Bloodstream form T. brucei brucei strain Lister 427 and T. evansi strain Antat 3/3 [59] were maintained in vitro at 37 °C with 5% (v/v) CO2 in HMI-11 medium supplemented with 10% FBS, as described elsewhere. Intraerythrocytic cultures of P. falciparum Dd2^Luc strain [62] were maintained at 37 °C in a 1% O2:3% CO2:96% N2 atmosphere in RPMI-1640 containing 37.5 mM HEPES, 5 mM NaOH, 10 mM D-glucose, 2 mM L-glutamine, 100 μM hypoxanthine, […] gentamicin sulfate, 5% human serum and 5% albumax-II and 2% haematocrit erythrocytes. When required, cultures were synchronised to ring stages using the sorbitol lysis method. Preliminary cytotoxicity screening was assessed using HepG2 cells. These cells were maintained in vitro at 37 °C with 5% (v/v) CO2 in DMEM (Sigma) pH 7 supplemented with 10% FBS, 100 U/mL penicillin (Lonza) and 100 μg/mL streptomycin (Lonza), as previously described. The human monocyte cell line THP-1 [68] was maintained in vitro by culturing at 37 °C with 5% (v/v) CO2 in complete RPMI medium (Dutch modified RPMI-1640 (Gibco) containing 10% FBS and 2 mM L-glutamine (Gibco)). Differentiation of THP-1 cells into macrophages was performed by seeding 2.5 × 10^5 cells/mL in complete RPMI media, supplemented with 20 ng/mL phorbol 12-myristate 13-acetate (PMA), followed by incubation at 37 °C with 5% (v/v) CO2 for 24 h.
(§3) The library was provided as 634 non-polar compounds (1 mg/mL in DMSO). Initial screening was performed in a 96-well plate with 200 μL of parasite culture. The initial screen used each compound at a final concentration of 2 μM for L. mexicana axenic amastigotes, T. brucei and P. falciparum, and at 1 μM for T. evansi. L. mexicana axenic amastigotes were plated at 1 × 10^6 cells/mL, incubated for 72 h, and the Alamar Blue assay was used to assess parasite growth. Each compound was tested in triplicate, with two biological replicates (n = 6). T. brucei and T. evansi were plated at 1×10^5 cells/mL for 48 h, and the Alamar Blue assay was used to assess parasite growth. Each compound was tested in triplicate with two biological replicates (n = 6). Intraerythrocytic P. falciparum in the trophozoite stage were seeded at 0.5% parasitaemia and 2% haematocrit for 48 h, and the Malaria SYBR-Green I fluorescence assay was used to assess parasite growth. Each compound was tested in duplicate with two biological replicates (n = 4). Negative controls comprised an equivalent volume of DMSO (equivalent of 1% v/v) to normalise the growth data. Data points >100% growth and <0% growth were tabulated as 100% and 0%, respectively. Some compounds were not tested in all parasite lines as there was insufficient material remaining.

[2] = test system: T. evansi bloodstream form; test: Initial screen, T. evansi bloodstream form, Alamar Blue; assay type: cell-based, Trypanosoma evansi; details: Trypanosoma evansi; for activity at 1 µM: initial screen; for inhibition of growth at 1 µM: x = initial hit, read-out: initial hit T.e
Protocol: as §1, §2, §3

T. evansi = test: Concentration-response EC50, T. evansi; assay type: cell-based; details: Trypanosoma evansi; bloodstream form, 48 h; read-out: T. evansi EC50
Protocol: EC50 values were determined by serial two-fold dilution of each compound in 96 well plates. Culture conditions and viability assays were as stated for the initial screen, with some exceptions. L. mexicana and L. donovani axenic amastigotes were seeded at 2 × 10^6 cell/s mL, T. brucei and T. evansi were seeded at 2 × 10^5 cells/mL. For cytotoxicity studies, HepG2 cells were seeded at 1 × 10^5 cells/mL, incubated for 48 h and viability was assessed using the Alamar Blue assay [66, 67]. […] Normalised growth and viability data (compared to untreated controls) were plotted against Log10 concentration to estimate EC50 in GraphPad (Prism v6).

[3] = test system: P. falciparum Dd2Luc intraerythrocytic trophozoites; test: Initial screen, intraerythrocytic P. falciparum, Malaria SYBR-Green I fluorescence assay; assay type: cell-based, Plasmodium falciparum; details: Plasmodium falciparum, 48 h
Protocol: as §1, with “≥50%. […]” for “≥50%.”
as §3, with “The PhytoQuest Phytopure library is a commercially available collection of purified compounds isolated predominantly from temperate zone plants, with structures confirmed by NMR and mass spectrometry. The library” for “The library”

in vitro = details: human, pH 7, HepG2 CC50
Excerpt: Initial hits from the parasite panel screen were taken forward in log concentration versus normalised response assays to estimate the half maximal effective concentration (EC50) in hit species as well as the half maximal cytotoxic concentrations (CC50) in the human hepatoma cell line HepG2 as a preliminary test for selectivity. Using CC50/EC50 to define the selectivity index (SI), the selectivity for each compound in a defined species compared to a human cell line was estimated and compared to the EC50 (Figure 3).
as §2
EC50 values were determined by serial two-fold dilution of each compound in 96 well plates. Culture conditions and viability assays were as stated for the initial screen, with some exceptions. L. mexicana and L. donovani axenic amastigotes were seeded at 2 × 10^6 cell/s mL, T. brucei and T. evansi were seeded at 2 × 10^5 cells/mL. For cytotoxicity studies, HepG2 cells were seeded at 1 × 10^5 cells/mL, incubated for 48 h and viability was assessed using the Alamar Blue assay. Differentiated THP-1 cells were seeded at 5 × 10^4 cells/mL, incubated for 48 h, and viability was assessed by the Alamar Blue assay. Normalised growth and viability data (compared to untreated controls) were plotted against Log10 concentration to estimate EC50 in GraphPad (Prism v6). Bioluminescence relative rate of kill assays in asexual intraerythrocytic P. falciparum Dd2^Luc were carried out as described.

[4] = test system: L. mexicana axenic amastigotes; test: Initial screen, L. mexicana axenic amastigotes, Alamar Blue; assay type: cell-based, Leishmania mexicana; details: for activity at 2 µM / inhibition of growth at 2 µM: Leishmania mexicana; for initial hit against L. mexicana / inhibition of growth at 2 µM: 2 μM; for initial hit against L. mexicana: growth inhibited by ≥80%; for inhibition of growth at 2 µM: x = initial hit, read-out: initial hit L.m
Protocol: as §1, with “≥50%. […]” for “≥50%.”
as §3, with “The PhytoQuest Phytopure library is a commercially available collection of purified compounds isolated predominantly from temperate zone plants, with structures confirmed by NMR and mass spectrometry. The library” for “The library”

[5] = Cytotoxicity CC50, differentiated THP-1, Alamar Blue; assay type: cell-based, human; details: human, THP-1 cells differentiated into macrophages with PMA, differentiated THP-1, 48 h; read-out: THP1 CC50
Excerpt: The four lanosterone-like sterols derived from the Noble Fir Abies procera (700022, 700107, 700136) and the Grand Fir Abies grandis (700240) were the only initial compounds taken forward for L. mexicana due to their nanomolar activity and apparent low cytotoxicity (Figure 3a). […] Understanding the impact of the ring-opened lactone head group in this compound compared to the other three warrants further analysis in exploring their structure-activity relationships. These four sterols were also tested for growth inhibitory activity against L. donovani axenic amastigotes. […] As Leishmania spp. amastigotes typically reside with macrophages, further cytotoxicity assays with these sterols were performed against an activated monocyte cell line (THP-1) (Figure 4b). […]

[6] = test system: L. mexicana axenic amastigotes; test: Concentration-response EC50, L. mexicana axenic amastigotes (WT); assay type: cell-based, Leishmania mexicana; details: Leishmania mexicana, 72 h, read-out: L. mexicana EC50, axenic amastigotes, 72 h
T. brucei = test: Concentration-response EC50, T. brucei; assay type: cell-based, Trypanosoma brucei brucei; details: Trypanosoma brucei, 48 h, bloodstream form, 48 h; read-out: T. brucei EC50
[7] = mean % growth compared to a normalised control with same concentration of DMSO solvent, read-out: % growth T. b. brucei
[8] = mean % growth compared to a normalised control with same concentration of DMSO solvent, read-out: % growth T. evansi
[9] = read-out: %growth P. falciparum, mean % growth compared to a normalised control with same concentration of DMSO solvent, initial screen
[10] = read-out: % growth L. mexicana, mean % growth compared to a normalised control with same concentration of DMSO solvent, initial screen
[11] = compared to a normalised control with same concentration of DMSO solvent, read-out: mean % growth, T. b. brucei
[12] = compared to a normalised control with same concentration of DMSO solvent, read-out: mean % growth, T. evansi
[13] = read-out: mean % growth, P. falciparum, initial screen, compared to a normalised control with same concentration of DMSO solvent
[14] = read-out: mean % growth, L. mexicana, initial screen, compared to a normalised control with same concentration of DMSO solvent

SMILES | initial hit against T. brucei [1] | activity at 2 µM [1, 7] | inhibition of growth at 2 µM [1] | activity at 1 µM [2, 8] | inhibition of growth at 1 µM [2] | EC50 (T. evansi) | activity at 2 µM [3, 9] | CC50 at 48 h (in vitro) | activity at 2 µM [4, 10] | activity at 2 µM [1, 11] | activity at 1 µM [2, 12] | activity at 2 µM [3, 13] | activity at 2 µM [4, 14] | CC50 at 48 h [5] | inhibition of growth at 2 µM ([3]; read-out: initial hit P.f) | EC50 [6] | initial hit against L. mexicana [4] | inhibition of growth at 2 µM [4] | EC50 (T. brucei)
C/C=C(\C)C(=O)OC1C(C)OC(Oc2c(C(C)C)ccc(C)c2O)C(O)C1OC1OC(C)C(OC(=O)C(C)CC)C(O)C1O (stereo not drawn) [Compound 700004] | initial hits | 14% | > 50% | 0.7% | > 50% | 357 nM | 101% | 16 µM | 48.1% |  |  |  |  |  |  |  |  |  | 
COc1ccc(CC2COC(=O)C2Cc2ccc(OC)c(O)c2O)cc1OC (stereo not drawn) [Compound 700144] |  | 69.4% |  | 35.8% | > 50% | 451 nM | 82.6% | > 100 µM | 83.6% |  |  |  |  |  |  |  |  |  | 
C/C(=C\C(=O)O)C(O)CC12CCCCC1C(C)(C(=O)OC(O)O)CCC2 (stereo not drawn) [Compound 700513] |  |  |  |  | > 50% | 756 nM |  | > 100 µM |  | 104% | 50% | 97% | 56.5% |  |  |  |  |  | 
C=C1C(=O)OC2/C=C(/C)CC/C=C(/C)CC(OC(=O)/C(C)=C\CO)C12 (stereo not drawn) [Compound 700756] |  |  |  |  |  |  |  |  |  | 53.7% | 98.4% | 44% | 2.9% | 2800 nM | > 50% | 1000 nM | initial hits | > 80% | 
CC#CC#CC(=O)c1cccc(OC)c1C(=O)OC [Compound 701044] |  |  |  |  |  |  |  |  |  | 79.3% | 90.3% | 92.6% | -4.5% | 2200 nM |  | 330 nM | initial hits | > 80% | 
CC(=O)OC1C(COC(=O)/C=C/c2ccc(O)cc2)OC(Oc2c(-c3ccc(O)cc3)oc3cc(O)cc(O)c3c2=O)C(OC(=O)/C=C/c2ccc(O)cc2)C1O (stereo not drawn) [Compound 701088] |  |  |  |  | > 50% | 816 nM |  | 54 µM |  | 63% | 42.7% | 99.9% | 81.1% |  |  |  |  |  | 
C=C(CC)C(=O)OC1CC(=C)C2CC(O)C(=C)C2C2OC(=O)C(=C)C12 (stereo not drawn) [Compound 701212] |  |  |  |  |  |  |  |  |  | 77.1% | 86.5% | 84.7% | 1.5% | 520 nM |  | 330 nM | initial hits | > 80% | 
CC#CC#CCc1cccc(O)c1 [Compound 701241] | initial hits |  | > 50% |  |  |  |  | 0.67 µM |  | -1.9% |  | 96.5% | 15% | 270 nM |  | 330 nM | initial hits | > 80% | 2200 nM
